Non-standard residues stand in square brackets, D forms with d. Residues, ends and D or L forms follow the SMILES beside them. *: point of attachment. X1 = O=S(=O)(c1ccc(N=Nc2ccc(O)c3ccccc23)cc1)*; X2 = O=C(c1ccc(N=Nc2ccccc2)cc1)*
Legend:
[1] = tested on: purified collagenase; experiment: Hydrolysis of NABS-peptide by purified collagenase (Example 16); assay type: biochemical, tadpole; details: 5×10^-4 M in 20% ethanol-Tris-HCl pH 7.8, collagenase 17.4 U/ml, 60 minutes at 37° C.
Experimental: (§1) Purified collagenase used in Examples was prepared from cultured media of tadpole skin explants as described in Biochem. Biophs. Acta, 263 564(1972), and non-specific peptidases were prepared by subjecting 5 ml of fresh adult human serum to chromatography on a calibrated Sephadex G-200 superfine gel column equilibrated with 0.05 M Tris-HCl buffer, pH 7.5, containing 0.15 M NaCl and 5 mM CaCl2, and gathering the effluent fractions corresponding to molecular weights of 100,000-180,000.
NABS-Pro-Gln-Gly-Ile-Ala-Gly-Gln-D-Arg-OH was dissolved in 20% ethanol-0.05 M Tris-HCl buffer, pH 7.8, containing 0.15 M NaCl and 5 mM CaCl2 to make a concentration of 5×10^-4 M. 0.5 ml of the solution was mixed with 0.1 ml of the purified collagenase (17.4 U/ml) and incubated for 60 minutes at 37° C. After stopping the enzyme reaction by adding 0.1 ml of 5 N-hydrochloric acid, the NABS-peptide fragments released were extracted with 1 ml ethyl acetate, followed by centrifugation at 3,000-5,000 rpm and room temperature for 10 minutes. The degree of hydrolysis was determined by measuring the absorbance of the organic layer at 389 nm.

[2] = tested on: purified collagenase; experiment: Hydrolysis of PAB-peptide by purified collagenase (Example 17); assay type: biochemical, tadpole; details: 5×10^-4 M in Tris-HCl pH 7.8, collagenase 17.4 U/ml, 60 minutes at 37° C.
Experimental: as §1
PAS-Pro-Gln-Gly-Ile-Ala-Gly-Gln-D-Arg-OH was dissolved in 0.05 M Tris-HCl buffer, pH 7.8, containing 0.15 M NaCl and 5 mM CaCl2 to make a concentration of 5×10^-4 M. 0.1 ml of the solution was mixed with 0.1 ml of the purified collagenase (17.4 U/ml) and incubated for 60 minutes at 37° C. After stopping the enzyme reaction by adding 0.5 ml of 1 N hydrochloric acid, the PAB-peptide fragments released were extracted with 1 ml ethyl acetate after saturated with sodium chloride, and worked up as in Example 16. The degree of hydrolysis was determined by measuring the absorbance of the organic layer at 325 nm.

| Structure (SMILES) | degree of hydrolysis, OD389/hr/ml [1] [OD389/hr/ml] | degree of hydrolysis, OD325/hr/ml [2] [OD325/hr/ml] |
| --- | --- | --- |
| CC[C@H](C)[C@H](NC(=O)CNC(=O)[C@H](CCC(N)=O)NC(=O)[C@@H]1CCCN1S(=O)(=O)c1ccc(N=Nc2ccc(O)c3ccccc23)cc1)C(=O)N[C@@H](C)C(=O)NCC(=O)N[C@@H](CCC(N)=O)C(=O)N[C@H](CCCNC(=N)N)C(=O)O [Example 2, NABS-Pro-Gln-Gly-Ile-Ala-Gly-Gln-D-Arg-OH] (X1-PQGIAGQ[dR]-OH) | 0.100 |  |
| CC[C@H](C)[C@H](NC(=O)CNC(=O)[C@H](CCC(N)=O)NC(=O)[C@@H]1CCCN1C(=O)c1ccc(N=Nc2ccccc2)cc1)C(=O)N[C@@H](C)C(=O)NCC(=O)N[C@@H](CCC(N)=O)C(=O)N[C@H](CCCNC(=N)N)C(=O)O [Example 3, PAB-Pro-Gln-Gly-Ile-Ala-Gly-Gln-D-Arg-OH] (X2-PQGIAGQ[dR]-OH) |  | 1.117 |

From patent US4176009A, “Method of measuring collagenase activity” (Ajinomoto Co., Inc., priority 1976, dated 1979)
